Measured values: patent publication US12520844B2 (Bayer Aktiengesellschaft, priority 2020, dated 2026)

Test: Measurement of Log P values by HPLC on reversed phase columns (EEC directive 79/831 Annex V.A8)
Assay type: physicochemical
Description: Measurement of Log P values as provided herein was performed according to EEC directive 79/831 Annex V.A8 by HPLC (High Performance Liquid Chromatography) on reversed phase columns with the following methods: • ^[a] Log P value is determined by measurement of LC-UV, in an acidic range, with 0.1% formic acid in water and acetonitrile as eluent (linear gradient from 10% acetonitrile to 95% acetonitrile). • ^[b] Log P value is determined by measurement of LC-UV, in a neutral range, with 0.001 molar ammonium acetate solution in water and acetonitrile as eluent (linear gradient from 10% acetonitrile to 95% acetonitrile). • ^[c] Log P value is determined by measurement of LC-UV, in an acidic range, with 0.1% phosphoric acid and acetonitrile as eluent (linear gradient from 10% acetonitrile to 95% acetonitrile).
If more than one Log P value is available within the same method, all the values are given and separated by “+”.
Calibration was done with straight-chain alkan2-ones (with 3 to 16 carbon atoms) with known Log P values (measurement of Log P values using retention times with linear interpolation between successive alkanones). Lambda-max-values were determined using UV-spectra from 200 nm to 400 nm and the peak values of the chromatographic signals

Structure (SMILES)	LogP
Cc1ccc(C(F)(F)CNC(=O)c2nc(C)ncc2Oc2ccc3ccccc3c2)c(C)c1 [Compound I-106]	4.35^[a]
Cc1ccc(C(F)(F)CNC(=O)c2nc(C)ncc2Oc2ccc(Cl)c(C(F)(F)F)c2)c(C)c1 [Compound I-108]	4.72^[a]
Cc1nnc(Oc2cccc(C(F)(F)F)c2)c(C(=O)NCC2(c3ccc(Cl)cc3)COC2)n1 [Compound I-110]	3.35^[a]
C=Cc1cccc(Oc2cnc(C)nc2C(=O)NCC(F)(F)c2ccc(C)cc2C)c1 [Compound I-115]	4.17^[a]
Cc1ccc(C(F)(F)CNC(=O)c2nc(C)nnc2Oc2cccc(C3CC3)c2)c(C)c1 [Compound I-117]	4.33^[a]
Cc1nnc(Oc2cccc(C(F)(F)F)c2)c(C(=O)NC(C)c2cccc(C(F)(F)F)c2)n1 (centres unmarked) [Compound I-119]	3.77^[a]
Cc1ccc(C(F)(F)CNC(=O)c2nc(C)ncc2Oc2cnc3ccccc3c2)c(C)c1 [Compound I-120]	3.40^[a]
Cc1ccc(C(F)(F)CNC(=O)c2nc(C3CC3)nnc2Oc2cccc(C(F)(F)F)c2)c(C)c1 [Compound I-121]	4.74^[a]
Cc1ccc(C(F)(F)CNC(=O)c2nc(C)ncc2Oc2cccc(-n3ccc(C(F)(F)F)n3)c2)c(C)c1 [Compound I-122]	4.54^[a]
Cc1ncc(Oc2cccc(C3CC3)c2F)c(C(=O)NCCc2ccc3c(c2)OCO3)n1 [Compound I-124]	3.34^[a]
CSc1cccc(Oc2cnc(C)nc2C(=O)NCC(F)(F)c2ccc(C)cc2C)c1 [Compound I-126]	4.11^[a]
Cc1ccc(C(F)(F)CNC(=O)c2nc(C)ncc2Oc2ccc3c(c2)CCO3)c(C)c1 [Compound I-128]	3.59^[a]
Cc1ccc(C(F)(F)CNC(=O)c2nc(C3CC3)nnc2Oc2cccc(C(F)(F)F)c2)c(Cl)c1 [Compound I-130]	4.66^[a]
Cc1ccc(C(F)=CNC(=O)c2nc(C3CC3)nnc2Oc2cccc(Br)c2)c(C)c1 [Compound I-132]	4.97^[a]

Second part, the molecule after the results:

LogP	Structure (SMILES)
4.85^[a]	Cc1ccc(/C(F)=C/NC(=O)c2nc(C3CC3)nnc2Oc2cccc(C)c2F)c(C)c1 [Compound I-107]
5.00^[a]	Cc1ccc(/C(F)=C\NC(=O)c2nc(C3CC3)nnc2Oc2cccc(Cl)c2F)c(C)c1 [Compound I-109]
4.04^[a]	CCN(CCc1ccccc1)C(=O)c1nc(C)ncc1Oc1cccc(C2CC2)c1F [Compound I-111]
5.20^[a]	Cc1ccc(/C(F)=C/NC(=O)c2nc(C3CC3)nnc2Oc2cccc(C3CC3)c2F)c(C)c1 [Compound I-112]
4.02^[a]	Cc1ncc(Oc2cccc(C3CC3)c2F)c(C(=O)NC2CCOc3c(C)cccc32)n1 (centres unmarked) [Compound I-113]
4.46^[a]	Cc1ncc(Oc2cccc(C3CC3)c2F)c(C(=O)NC2CCCc3ccc(Cl)cc32)n1 (centres unmarked) [Compound I-114]
3.99^[a]	COc1ccc2c(c1)C(NC(=O)c1nc(C)ncc1Oc1cccc(C3CC3)c1F)C(OC)CC2 (centres unmarked) [Compound I-116]
2.78^[a]	Cc1ccc(C(F)(F)CNC(=O)c2nc(C)ncc2Oc2cnc3c(c2)CCC3)c(C)c1 [Compound I-118]
3.97^[a]	CCON(Cc1ccccc1)C(=O)c1nc(C)ncc1Oc1cccc(C2CC2)c1F [Compound I-123]
4.20^[a]	Cc1ccc(C(F)(F)CNC(=O)c2nc(C)ncc2Oc2ccc(F)c(Cl)c2)c(C)c1 [Compound I-129]
4.62^[a]	Cc1ccc(C(F)(F)CNC(=O)c2nc(C3CC3)nnc2Oc2cccc(Cl)c2F)c(C)c1 [Compound I-131]
4.10^[a]	Cc1ncc(Oc2cccc(C3CC3)c2F)c(C(=O)NCCc2csc(C)c2C)n1 [Compound I-134]
